From patent US9737535B2, “Methods for treating cancer using TOR kinase inhibitor combination therapy comprising administering substituted pyrazino[2,3-b]pyrazines” (Signal Pharmaceuticals, LLC, priority 2014, dated 2017)
Counter-ions that a name gives are not always drawn.

The molecules below were run on MCF7 (assay: Anti-proliferation assay (ATPLite), Chalice synergy score). Conditions: Compound 1 in combination with second active agent, mean self-cross + 2σ threshold 3.07.
Assay type: cell-based
Text: (§1) Cells were thawed from a liquid nitrogen preserved state.
(§2) The calculation for synergy score is provided below.
(§3) If T≧V0:100*[1−(T−V0)/(V−V0)]

Compound | Synergy score
CC(C)(C)Cn1c(N)nc2ccc(-c3[nH]c(C(C)(C)C)nc3-c3ccc(F)cc3)nc21 [LY2228820] | 3.76
C=CC(=O)N1CCC[C@@H](n2nc(-c3ccc(Oc4ccccc4)cc3)c3c(N)ncnc32)C1 [PCI-32765] | 0.13
CCc1c2c(nc3ccc(OC(=O)N4CCC(N5CCCCC5)CC4)cc13)-c1cc3c(c(=O)n1C2)COC(=O)[C@]3(O)CC [Irinotecan Hydrochloride] | 2.02

These molecules were tested on HCC70 in the same assay as above. Conditions: Compound 1 in combination with second active agent; HCC-70; mean self-cross + 2σ threshold 3.45.
Assay type: cell-based
Text: as §1, §2, §3

Compound | Synergy score
CC(C)(C)Cn1c(N)nc2ccc(-c3[nH]c(C(C)(C)C)nc3-c3ccc(F)cc3)nc21 [LY2228820] | 3.65
C=CC(=O)N1CCC[C@@H](n2nc(-c3ccc(Oc4ccccc4)cc3)c3c(N)ncnc32)C1 [PCI-32765] | 6.29
CCc1c2c(nc3ccc(OC(=O)N4CCC(N5CCCCC5)CC4)cc13)-c1cc3c(c(=O)n1C2)COC(=O)[C@]3(O)CC [Irinotecan Hydrochloride] | 1.98

Each molecule was assayed on BT-549 in the same assay as above. Conditions: Compound 1 in combination with the named second active agent, 72 h, mean of n = 3 experiments in triplicate.
Assay type: cell-based
Text: as §1, §2, §3

Compound | Synergy score
CC(C)(C)Cn1c(N)nc2ccc(-c3[nH]c(C(C)(C)C)nc3-c3ccc(F)cc3)nc21 [LY2228820] | 1.26
C=CC(=O)N1CCC[C@@H](n2nc(-c3ccc(Oc4ccccc4)cc3)c3c(N)ncnc32)C1 [PCI-32765] | 0.05
CCc1c2c(nc3ccc(OC(=O)N4CCC(N5CCCCC5)CC4)cc13)-c1cc3c(c(=O)n1C2)COC(=O)[C@]3(O)CC [Irinotecan Hydrochloride] | 1.25

The molecules below were run on HCC-1806 in the same assay as above. Conditions: Compound 1 in combination with the named second active agent, 72 h, mean of n = 3 experiments in triplicate.
Assay type: cell-based
Text: as §1, §2, §3

Compound | Synergy score
CC(C)(C)Cn1c(N)nc2ccc(-c3[nH]c(C(C)(C)C)nc3-c3ccc(F)cc3)nc21 [LY2228820] | 2.81
C=CC(=O)N1CCC[C@@H](n2nc(-c3ccc(Oc4ccccc4)cc3)c3c(N)ncnc32)C1 [PCI-32765] | 3.72

The molecules below were run on HCC-1937 in the same assay as above. Conditions: Compound 1 in combination with the named second active agent, 72 h, mean of n = 3 experiments in triplicate.
Assay type: cell-based
Text: as §1, §2, §3

Compound | Synergy score
C=CC(=O)N1CCC[C@@H](n2nc(-c3ccc(Oc4ccccc4)cc3)c3c(N)ncnc32)C1 [PCI-32765] | 1.62
CCc1c2c(nc3ccc(OC(=O)N4CCC(N5CCCCC5)CC4)cc13)-c1cc3c(c(=O)n1C2)COC(=O)[C@]3(O)CC [Irinotecan Hydrochloride] | 3.92

These molecules were tested on MDA-MB-231 in the same assay as above. Conditions: Compound 1 in combination with second active agent, mean self-cross + 2σ threshold 2.61.
Assay type: cell-based
Text: as §1, §2, §3

Compound | Synergy score
CC(C)(C)Cn1c(N)nc2ccc(-c3[nH]c(C(C)(C)C)nc3-c3ccc(F)cc3)nc21 [LY2228820] | 2.18
C=CC(=O)N1CCC[C@@H](n2nc(-c3ccc(Oc4ccccc4)cc3)c3c(N)ncnc32)C1 [PCI-32765] | 0.27
CCc1c2c(nc3ccc(OC(=O)N4CCC(N5CCCCC5)CC4)cc13)-c1cc3c(c(=O)n1C2)COC(=O)[C@]3(O)CC [Irinotecan Hydrochloride] | 1.64

These molecules were tested on MDA-MB-468 in the same assay as above. Conditions: Compound 1 in combination with second active agent, mean self-cross + 2σ threshold 4.66.
Assay type: cell-based
Text: as §1, §2, §3

Compound | Synergy score
CC(C)(C)Cn1c(N)nc2ccc(-c3[nH]c(C(C)(C)C)nc3-c3ccc(F)cc3)nc21 [LY2228820] | 5.77
C=CC(=O)N1CCC[C@@H](n2nc(-c3ccc(Oc4ccccc4)cc3)c3c(N)ncnc32)C1 [PCI-32765] | 3.10
CCc1c2c(nc3ccc(OC(=O)N4CCC(N5CCCCC5)CC4)cc13)-c1cc3c(c(=O)n1C2)COC(=O)[C@]3(O)CC [Irinotecan Hydrochloride] | 8.45

These molecules were tested on BT-474 in the same assay as above. Conditions: Compound 1 in combination with the named second active agent, 72 h, mean of n = 3 experiments in triplicate.
Assay type: cell-based
Text: as §1, §2, §3

Compound | Synergy score
CC(C)(C)Cn1c(N)nc2ccc(-c3[nH]c(C(C)(C)C)nc3-c3ccc(F)cc3)nc21 [LY2228820] | 2.81
C=CC(=O)N1CCC[C@@H](n2nc(-c3ccc(Oc4ccccc4)cc3)c3c(N)ncnc32)C1 [PCI-32765] | 5.95
CCc1c2c(nc3ccc(OC(=O)N4CCC(N5CCCCC5)CC4)cc13)-c1cc3c(c(=O)n1C2)COC(=O)[C@]3(O)CC [Irinotecan Hydrochloride] | 1.17

These molecules were tested on MDA-MB-157 in the same assay as above. Conditions: Compound 1 in combination with second active agent, mean self-cross + 2σ threshold 4.68.
Assay type: cell-based
Text: as §1, §2, §3

Compound | Synergy score
CC(C)(C)Cn1c(N)nc2ccc(-c3[nH]c(C(C)(C)C)nc3-c3ccc(F)cc3)nc21 [LY2228820] | 5.64
C=CC(=O)N1CCC[C@@H](n2nc(-c3ccc(Oc4ccccc4)cc3)c3c(N)ncnc32)C1 [PCI-32765] | 3.28
CCc1c2c(nc3ccc(OC(=O)N4CCC(N5CCCCC5)CC4)cc13)-c1cc3c(c(=O)n1C2)COC(=O)[C@]3(O)CC [Irinotecan Hydrochloride] | 5.71

What follows are molecules tested on HCC-1428 in the same assay as above. Conditions: Compound 1 in combination with the named second active agent, 72 h, mean of n = 3 experiments in triplicate.
Assay type: cell-based
Text: as §1, §2, §3

Compound | Synergy score
CC(C)(C)Cn1c(N)nc2ccc(-c3[nH]c(C(C)(C)C)nc3-c3ccc(F)cc3)nc21 [LY2228820] | 1.80
C=CC(=O)N1CCC[C@@H](n2nc(-c3ccc(Oc4ccccc4)cc3)c3c(N)ncnc32)C1 [PCI-32765] | 0.59
CCc1c2c(nc3ccc(OC(=O)N4CCC(N5CCCCC5)CC4)cc13)-c1cc3c(c(=O)n1C2)COC(=O)[C@]3(O)CC [Irinotecan Hydrochloride] | 0.76

The molecules below were run on MDA-MB-436 in the same assay as above. Conditions: Compound 1 in combination with second active agent, mean self-cross + 2σ threshold 1.91.
Assay type: cell-based
Text: as §1, §2, §3

Compound | Synergy score
CC(C)(C)Cn1c(N)nc2ccc(-c3[nH]c(C(C)(C)C)nc3-c3ccc(F)cc3)nc21 [LY2228820] | 1.32
C=CC(=O)N1CCC[C@@H](n2nc(-c3ccc(Oc4ccccc4)cc3)c3c(N)ncnc32)C1 [PCI-32765] | 0.07
CCc1c2c(nc3ccc(OC(=O)N4CCC(N5CCCCC5)CC4)cc13)-c1cc3c(c(=O)n1C2)COC(=O)[C@]3(O)CC [Irinotecan Hydrochloride] | 3.61

What follows are molecules tested on HCC-1187 in the same assay as above. Conditions: Compound 1 in combination with the named second active agent, 72 h, mean of n = 3 experiments in triplicate.
Assay type: cell-based
Set-up: scale not given here
Text: as §1, §2, §3

Compound | Synergy score
CC(C)(C)Cn1c(N)nc2ccc(-c3[nH]c(C(C)(C)C)nc3-c3ccc(F)cc3)nc21 [LY2228820] | 0.80
C=CC(=O)N1CCC[C@@H](n2nc(-c3ccc(Oc4ccccc4)cc3)c3c(N)ncnc32)C1 [PCI-32765] | 1.70
CCc1c2c(nc3ccc(OC(=O)N4CCC(N5CCCCC5)CC4)cc13)-c1cc3c(c(=O)n1C2)COC(=O)[C@]3(O)CC [Irinotecan Hydrochloride] | 3.01

What follows are molecules tested on HCC-1500 in the same assay as above. Conditions: Compound 1 in combination with the named second active agent, 72 h, mean of n = 3 experiments in triplicate.
Assay type: cell-based
Set-up: scale not given here
Text: as §1, §2, §3

Compound | Synergy score
CC(C)(C)Cn1c(N)nc2ccc(-c3[nH]c(C(C)(C)C)nc3-c3ccc(F)cc3)nc21 [LY2228820] | 3.91
C=CC(=O)N1CCC[C@@H](n2nc(-c3ccc(Oc4ccccc4)cc3)c3c(N)ncnc32)C1 [PCI-32765] | 0.56
CCc1c2c(nc3ccc(OC(=O)N4CCC(N5CCCCC5)CC4)cc13)-c1cc3c(c(=O)n1C2)COC(=O)[C@]3(O)CC [Irinotecan Hydrochloride] | 4.45

The molecules below were run on BT-20 in the same assay as above. Conditions: Compound 1 in combination with the named second active agent, 72 h, mean of n = 3 experiments in triplicate.
Assay type: cell-based
Set-up: scale not given here
Text: as §1, §2, §3

Compound | Synergy score
CC(C)(C)Cn1c(N)nc2ccc(-c3[nH]c(C(C)(C)C)nc3-c3ccc(F)cc3)nc21 [LY2228820] | 0.20
C=CC(=O)N1CCC[C@@H](n2nc(-c3ccc(Oc4ccccc4)cc3)c3c(N)ncnc32)C1 [PCI-32765] | 6.26
CCc1c2c(nc3ccc(OC(=O)N4CCC(N5CCCCC5)CC4)cc13)-c1cc3c(c(=O)n1C2)COC(=O)[C@]3(O)CC [Irinotecan Hydrochloride] | 2.59
